Measurements from publication PMC8312610, “F4, a collagen XIX-derived peptide, inhibits tumor angiogenesis through αvβ3 and α5β1 integrin interaction” (Cell Adhesion & Migration, 2021).
“Also recorded” adds a separate entry of the source. Positions of bridges follow the written chain, without caps; N, C: chain ends. No end group written: not given here.

Columns and labels:
α5β1 integrin [1] = experiment: Solid phase assay, direct binding to α5β1; parameters: species or system human; conditions: coated integrin 26 × 10^−7 to 0.1 × 10^−7 mol/L; biotinylated-F4 26 × 10^−5 mol/L, or 20.8 × 10^−4 to 0.16 × 10^−4 mol/L; 90 min, room temperature, streptavidin-peroxidase/TMB, 450 nm; N = 2
Description: (§1) Figure 5. F4 directly binds to αvβ3 and α5β1 integrins. Direct interaction between αvβ3 or α5β1 integrin and F4 was studied using solid phase assays as described in the material and method section. The F4 peptide was biotinylated to allow its detection using the streptavidin-peroxidase complex. Different conditions were used. (a-b) The amounts of coated αvβ3 (a) or α5β1 integrin (b) were increased while biotinylated F4 peptide was kept constant. (c-d) The concentration of biotinylated F4 peptide was increased while coated amounts of αvβ3 (c) or α5β1 (d) integrins were kept constant. (e-f) Competitive assays were performed using increasing concentrations of F4 peptide while biotinylated-F4 peptide and αvβ3 (e) or α5β1 (f) integrins were kept constant. […]
(§2) Wells of a 96-well plate were coated with α5β1 (ref. 3230-A5-050, R&D systems) and/or αvβ3 integrin (ref. 3050-AV-050, R&D systems) at different concentrations ranging from 26 × 10^−7 mol/L to 0.1 × 10^−7 mol/L (100 μL per well in PBS). […] The intensity of the yellow coloration was measured at 450 nm with an LB940 spectrophotometer (Berthold Technologies).
(§3) The optimum integrin amount for the coating was determined using the above protocol and the optimum ligand concentration was sought using different dilutions of the biotinylated-F4 peptide ranging from 20.8 × 10^−4 to 0.16 × 10^−4 mol/L.

αvβ3 integrin = experiment: Solid phase assay, direct binding to αvβ3; parameters: species or system human; conditions: coated integrin 26 × 10^−7 to 0.1 × 10^−7 mol/L; biotinylated-F4 26 × 10^−5 mol/L, or 20.8 × 10^−4 to 0.16 × 10^−4 mol/L; 90 min, room temperature, streptavidin-peroxidase/TMB, 450 nm; N = 2
Description: as §1, §2, §3

[2] = tested on: Sprague Dawley rat aortic rings; experiment: Ex vivo rat aortic ring assay (endothelial cell outgrowth); assay type: cell-based; conditions: 40 μM, 14 days, Opti-MEM with 30 ng/mL VEGF, Matrigel, mean ± SD (n = 5), N = 2; p < 0.01 NC1(XIX), p < 0.001 F4
Protocol: Figure 3. NC1(XIX) and F4 inhibit endothelial cell ex vivo migration. Rat aortic rings were embedded in Matrigel in 24 well-plate and then incubated with or without 40 μM NC1(XIX) or F4 for 14 days. Micro-vessel outgrowth was observed under an inverted microscope after 14 days and photographed (a). Cell outgrowth from the tissue explant was measured using a home-made macro based on ImageJ analysis software. The results are presented as mean ± SD (n = 5 replicates) (b). The experiment was repeated twice (N = 2)
The ex vivo rat aortic ring assay was adapted from Baker et al.. Thoracic aorta was dissected from Sprague Dawley rat and stored in Opti-MEM (ThermoFisher, ref 31985062) supplemented with 1% penicillin/streptomycin in a Petri dish. Aorta was then cut into 0.5 mm rings that were incubated in Opti-MEM overnight at +37°C in a Petri dish. Matrigel (7 mg/mL) was loaded in 24-well plate and allowed to polymerize at +37°C for 30 min. The rings were carefully transferred from the Petri dish onto the Matrigel coated wells and were completely embedded by addition of Matrigel. The plate was incubated at +37°C for 30 min. Opti-MEM supplemented with 30 ng/mL VEGF with or without 40 μM NC1(XIX) or F4 was added. Plate was incubated at +37°C in a humid atmosphere containing 5% CO2 for 14 days. The supplemented culture medium was changed every 3 days. Rings were imaged under an inverted light microscope at 14 days. Quantitative evaluation of the angiogenic sprouting was determined by measuring the number of endothelial cell outgrowth from the primary tissue explant using a homemade macro based on ImageJ analysis software. The first step consisted in the semi-automatic selection of aortic ring shape at day 0 by manual threshold allowing the design of a top hat filter to obtain a relevant mask of this structure. The mask was then substracted from day 14 image to keep only outgrowing cells. The second step consisted in a manual threshold and the use of ‘Analyze Particules’ tool involving size criteria. The total cell number of cell outgrowing from the ring was determined.

HUVEC = experiment: Capillary (pseudo-)tube formation on Matrigel; assay type: cell-based, human; conditions: 40 µM
Protocol: Figure 2. NC1(XIX) and F4 inhibit endothelial cell in vitro pseudotube formation. 50,000 HUVEC were seeded in Matrigel coated well of a 48 well-plate and incubated with or without 40 μM NC1(XIX) or F4. Pseudotube formation was observed and photographed under an inverted microscope after 8 hours (a). The number of segments, of nodes and the total length of pseudotubes were quantified by the ImageJ software, using the Angiogenesis Analyzer tool (b). The values are the means ± SD (n = 8 replicates). *** p < 0.001). The experiment was repeated three times (N = 3)
(§4) Human Umbilical Vein Endothelial Cells (HUVEC) (Ref C-12253) were purchased from Promocell. They were grown in Endothelial Cell Growth Medium (ECGM) (Promocell, Ref C-22110: Basal medium supplemented with 0.02 mL/mL Fetal Calf Serum, 0.004 mL/mL Endothelial Cell Growth Supplement, 0.1 ng/mL Epidermal Growth Factor (recombinant human), 1 ng/mL Basic Fibroblast Growth Factor (recombinant human), 90 μg/mL Heparin, 1 μg/mL Hydrocortisone) at +37°C in a humid atmosphere containing 5% CO2. PromoCell Detach Kit was used for the detachment of HUVEC according to the manufacturer’s protocols (Promocell, ref C-41200).
The ability of HUVEC to form pseudo-tubes was investigated on Matrigel (Corning, ref 356237). Matrigel was loaded into 48-well plate and allowed to polymerize at +37°C for 2 h. 50,000 HUVEC suspended in Basal media supplemented with 0.004 mL/mL Endothelial Cell Growth Supplement, 90 μg/mL Heparin, 1 μg/mL Hydrocortisone with or without 40 μM NC1(XIX) or F4 were seeded into each well. Plates were incubated at +37°C in a humid atmosphere containing 5% CO2, 95% for 8 h. The formation of the capillary network was then imaged under an inverted light microscope. Quantitative evaluation of the capillary network was performed using the angiogenesis analyzer tool of ImageJ analysis software. The number of nodes, of segments and the total length of the capillary network were determined.

[3] = tested on: HUVEC (Human Umbilical Vein Endothelial Cells); experiment: HUVEC proliferation (crystal violet); assay type: cell-based; conditions: 40 μM, 48 h, 5,000 HUVEC per well in ECGM, 560 nm, means ± SD (n = 16), N = 3
Protocol: Figure 1. […] 5,000 HUVEC were seeded in a 96 well plate and incubated with or without 40 μM NC1(XIX) or F4 for 48 hours. After washing, cells were fixed with glutaraldehyde and stained with crystal violet. Dye was eluted with 10% acetic acid and absorbance was read at 560 nm. The values are the means ± SD (n = 16). The experiment was repeated three times (N = 3) and the results presented in the figure correspond to the more representative one
as §4
For cell proliferation measurement, 5,000 HUVEC were seeded in 96-well plates and cultivated in ECGM with or without 40 μM NC1(XIX) or F4 at +37°C in a humid atmosphere containing 5% CO2. […] Dye was eluted with 10% (v/v) acetic acid and absorbance was read at 560 nm.

[4] = tested on: inhibitory nerve terminal assembly; parameters: method as in PMID 26975851; conditions: in vitro; ref [27]; cited from earlier work
α5β1 integrin [5] = tested on: α5β1 integrin; parameters: method as in PMID 26975851; conditions: NC1(XIX) covalently coupled to agarose beads, cortical protein extract; ref [27]; cited from earlier work
mouse melanoma model = conditions: mouse melanoma model; ref [22],[23]; cited from earlier work
Description: (§5) The aim of the present work was to study the anti-angiogenic properties of F4 peptide. […] By affinity chromatography, we identified αvβ3 and α5β1 integrins as potential receptors for F4 peptide on endothelial cell surface. Using solid phase assays, ... || Type XIX collagen, that belongs to the FACIT family (Fibril-Associated Collagens with Interrupted Triple helices), is a minor collagen associated to the basement membrane zone.

melanoma cell = conditions: earlier work of the authors; ref [22],[23]; cited from earlier work
Description: as §5

[6] = 8 h, 50,000 HUVEC on Matrigel, ImageJ Angiogenesis Analyzer, p < 0.001 for NC1(XIX) and F4, n = 8, N = 3

Row | Substance | binding to α5β1, concentration dependence (α5β1 integrin [1]) | binding to αvβ3, concentration dependence (αvβ3 integrin) | change of cell outgrowth from aortic ring vs control [2] | decrease of the number of nodes vs control (HUVEC; [6]) | decrease of the number of segments vs control (HUVEC; [6]) | decrease of the total length of capillary tubes vs control (HUVEC; [6]) | inhibition of pseudo-tube formation (HUVEC; 8 h, HUVEC on Matrigel, compared to control) | effect on HUVEC proliferation [3] | inhibitory nerve terminal assembly [4] | purification of α5β1 integrin on immobilised peptide (α5β1 integrin [5]) | in vivo tumor growth and angiogenesis (mouse melanoma model) | melanoma cell migration and invasion (melanoma cell)
1 | biotinylated-F4: The F4 peptide was biotinylated to allow its detection using the streptavidin-peroxidase complex (CNPEDCLYPVSHAHQR; disulfide 1-6 (inferred); also: biotinylated (position not given here)) | dependent both on the receptor (Figure 5(a,b)) and on ligand (Figure 5(c,d)) concentrations | dependent both on the receptor (Figure 5(a,b)) and on ligand (Figure 5(c,d)) concentrations |  |  |  |  |  |  |  |  |  | 
2 | NPEDCLYPVSHAHQRTGGN [NC1(XIX), NC1(XIX) domain at the C-terminus of the α1(XIX) collagen chain] |  |  | −57% | 57% | 33% | 31% | strongly inhibited pseudo-tube formation | not significantly modified; also recorded: does not affect endothelial cell proliferation | involved in triggering inhibitory nerve terminal assembly in vitro | able to purify α5β1 integrin from cortical protein extract | strongly inhibits in vivo tumor growth as well as angiogenesis | inhibits melanoma cell migration and invasion
